Data on 25 molecules can be found in US11180462B2, “Microbiocidal oxadiazole derivatives” (SYNGENTA PARTICIPATIONS AG, priority 2015, dated 2021).

The test system of test [1] is Puccinia recondita f. Sp. Tritici. Kind of test: Fungicidal activity against Puccinia recondita f. sp. tritici / wheat / leaf disc preventative (brown rust). The conditions noted are these: foliar, 200 ppm in the applied formulation, wheat leaf segments, preventative, compared to untreated control leaf disks, read-out: disease control. The test is classed as in vivo. On the procedure:
Leaf disks or leaf segments of various plant species are cut from plants grown in a greenhouse. The cut leaf disks or segments are placed in multiwell plates (24-well format) onto water agar. The leaf disks are sprayed with a test solution before (preventative) or after (curative) inoculation. Compounds to be tested are prepared as DMSO solutions (max. 10 mg/ml) which are diluted to the appropriate concentration with 0.025% Tween20 just before spraying. The inoculated leaf disks or segments are incubated under defined conditions (temperature, relative humidity, light, etc.) according to the respective test system. A single evaluation of disease level is carried out 3 to 14 days after inoculation, depending on the pathosystem. Percent disease control relative to the untreated check leaf disks or segments is then calculated.
Fungicidal Activity Against Puccinia recondita f. Sp. Tritici/Wheat/Leaf Disc Preventative (Brown Rust)
Wheat leaf segments cv. Kanzler were placed on agar in multiwell plates (24-well format) and sprayed with the formulated test compound diluted in water. The leaf disks were inoculated with a spore suspension of the fungus 1 day after application. The inoculated leaf segments were incubated at 19° C. and 75% relative humidity (rh) under a light regime of 12 hours light/12 hours darkness in a climate cabinet and the activity of a compound was assessed as percent disease control compared to untreated when an appropriate level of disease damage appears in untreated check leaf segments (7 to 9 days after application).
The following compounds at 200 ppm in the applied formulation give at least 80% disease control in this test when compared to untreated control leaf disks under the same conditions, which show extensive disease development.

In test [2] the test system is Glomerella lagenarium (Colletotrichum lagenarium). Kind of test: Fungicidal activity against Glomerella lagenarium (Colletotrichum lagenarium) liquid culture / cucumber / preventative (anthracnose). The test is classed as cell-based. The conditions noted are these: Colletotrichum orbiculare; 20 ppm in the applied formulation; liquid culture (PDB), growth inhibition measured photometrically after 3 to 4 days; compared to untreated control; read-out: disease control. The method in brief:
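Photometric read-out of fungal growth after 2–7 days, expressed as percent antifungal activity versus untreated check. Cryo-stored conidia in PDB; compound at 20 ppm; dark, 24 °C, 96% RH.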

As for `CCCON(Cc1ccc(-c2noc(C(F)(F)F)n2)cc1)C(=O)C1CCCCO1` (centres unmarked) [Compound 1.283, N-propoxy-N-[[4-[5-(trifluoromethyl)-1,2,4-oxadiazol-3-yl]phenyl]methyl]-tetrahydropyran-2-carboxamide], in test [1], the pest or weed control at 200 ppm is at least 80%. Further, in test [2], the inhibition of growth at 20 ppm is at least 80%.

In the case of `C=CC(=O)N(Cc1ccc(-c2noc(C(F)(F)F)n2)cc1)CC1CCCO1` (centres unmarked) [Compound 1.430, N-(tetrahydrofuran-2-ylmethyl)-N-[[4-[5-(trifluoromethyl)-1,2,4-oxadiazol-3-yl]phenyl]methyl]-prop-2-enamide], in test [1], the pest or weed control at 200 ppm was at least 80%. For the same molecule, the inhibition of growth at 20 ppm in test [2] was at least 80%.

With `CCCON(Cc1ccc(-c2noc(C(F)(F)F)n2)cc1)C(=O)COC(C)=O` [Compound 1.306, [2-oxo-2-[propoxy-[[4-[5-(trifluoromethyl)-1,2,4-oxadiazol-3-yl]phenyl]methyl]-amino]ethyl] acetate], the pest or weed control at 200 ppm in test [1] was at least 80%. Moreover, the inhibition of growth at 20 ppm in test [2] was at least 80%.

As for `CCC(COC)C(=O)N(Cc1ccc(-c2noc(C(F)(F)F)n2)cc1)CC1CCCO1` (centres unmarked) [Compound 1.440, 2-(methoxymethyl)-N-(tetrahydrofuran-2-ylmethyl)-N-[[4-[5-(trifluoromethyl)-1,2,4-oxadiazol-3-yl]phenyl]methyl]-butanamide], the pest or weed control at 200 ppm in test [1] is at least 80%. In addition, in test [2], the inhibition of growth at 20 ppm was at least 80%.

In the case of `Cc1cccc(C)c1C(=O)N(Cc1ccc(-c2noc(C(F)(F)F)n2)cc1)C1CC1` [Compound 1.105, N-cyclopropyl-2,6-dimethyl-N-[[4-[5-(trifluoromethyl)-1,2,4-oxadiazol-3-yl]phenyl]methyl]-benzamide], the pest or weed control at 200 ppm in test [1] is at least 80%. In addition, the inhibition of growth at 20 ppm in test [2] was at least 80%.

`O=C(CCl)N(Cc1ccc(-c2noc(C(F)(F)F)n2)cc1)Cc1ccco1` [Compound 1.462, 2-chloro-N-(2-furylmethyl)-N-[[4-[5-(trifluoromethyl)-1,2,4-oxadiazol-3-yl]phenyl]methyl]-acetamide]: the pest or weed control at 200 ppm in test [1] is at least 80%. Further, the inhibition of growth at 20 ppm in test [2] was at least 80%.

On to `COCCN(Cc1ccc(-c2noc(C(F)(F)F)n2)cc1)C(=O)C=CC(C)=O` [Compound 1.352, N-(2-methoxyethyl)-4-oxo-N-[[4-[5-(trifluoromethyl)-1,2,4-oxadiazol-3-yl]phenyl]methyl]-pent-2-enamide], for which the pest or weed control at 200 ppm in test [1] is at least 80%. Besides, the inhibition of growth at 20 ppm in test [2] was at least 80%.

For the molecule `O=C(C1CC1(F)F)N(Cc1ccc(-c2noc(C(F)(F)F)n2)cc1)CC1CCCO1` (centres unmarked) [Compound 1.414, 2,2-difluoro-N-(tetrahydrofuran-2-ylmethyl)-N-[[4-[5-(trifluoromethyl)-1,2,4-oxadiazol-3-yl]phenyl]methyl]-cyclopropane-carboxamide], the pest or weed control at 200 ppm in test [1] was at least 80%. The inhibition of growth at 20 ppm in test [2] is at least 80%.

On to `CC=CC(=O)N(Cc1ccc(-c2noc(C(F)(F)F)n2)cc1)CC1CCCO1` (centres unmarked) [Compound 1.413, N-(tetrahydrofuran-2-ylmethyl)-N-[[4-[5-(trifluoromethyl)-1,2,4-oxadiazol-3-yl]phenyl]methyl]but-2-enamide], for which the pest or weed control at 200 ppm in test [1] was at least 80%. Moreover, the inhibition of growth at 20 ppm in test [2] is at least 80%.

For `CCC(C)N(Cc1ccc(-c2noc(C(F)(F)F)n2)cc1)C(=O)C1CCCC1` (centres unmarked) [Compound 1.376, N-sec-butyl-N-[[4-[5-(trifluoromethyl)-1,2,4-oxadiazol-3-yl]phenyl]methyl]-cyclopentane-carboxamide], the pest or weed control at 200 ppm in test [1] is at least 80%. The inhibition of growth at 20 ppm in test [2] is at least 80%.

As to `O=C(N(Cc1ccc(-c2noc(C(F)(F)F)n2)cc1)CC1CCCO1)C1(F)CC1` (centres unmarked) [Compound 1.436, 1-fluoro-N-(tetrahydrofuran-2-ylmethyl)-N-[[4-[5-(trifluoromethyl)-1,2,4-oxadiazol-3-yl]phenyl]methyl]-cyclopropane-carboxamide], in test [1], the pest or weed control at 200 ppm was at least 80%. In addition, the inhibition of growth at 20 ppm in test [2] is at least 80%.

Take `CCC(C)N(Cc1ccc(-c2noc(C(F)(F)F)n2)cc1)C(=O)c1ccoc1` (centres unmarked) [Compound 1.405, N-sec-butyl-N-[[4-[5-(trifluoromethyl)-1,2,4-oxadiazol-3-yl]phenyl]methyl]-furan-3-carboxamide]: in test [1], the pest or weed control at 200 ppm is at least 80%. Besides, the inhibition of growth at 20 ppm in test [2] was at least 80%.

For `CC#CC(=O)N(Cc1ccc(-c2noc(C(F)(F)F)n2)cc1)C(C)CC` (centres unmarked) [Compound 1.367, N-sec-butyl-N-[[4-[5-(trifluoromethyl)-1,2,4-oxadiazol-3-yl]phenyl]methyl]-but-2-ynamide], the pest or weed control at 200 ppm in test [1] is at least 80%. The inhibition of growth at 20 ppm in test [2] was at least 80%.

As for `CON(Cc1ccc(-c2noc(C(F)(F)F)n2)cc1F)C(=O)c1ccccc1Cl` [Compound 1.565, 2-chloro-N-[[2-fluoro-4-[5-(trifluoromethyl)-1,2,4-oxadiazol-3-yl]phenyl]methyl]-N-methoxy-benzamide], in test [1], the pest or weed control at 200 ppm was at least 80%. Further, the inhibition of growth at 20 ppm in test [2] was at least 80%.

As to `C#CCN(Cc1ccc(-c2noc(C(F)(F)F)n2)cc1)C(=O)CC1CCCC1` [Compound 1.152, 2-cyclopentyl-N-prop-2-ynyl-N-[[4-[5-(trifluoromethyl)-1,2,4-oxadiazol-3-yl]phenyl]methyl]-acetamide], in test [1], the pest or weed control at 200 ppm is at least 80%. In test [2], the inhibition of growth at 20 ppm was at least 80%.

Turning to `C#CC(=O)N(Cc1ccc(-c2noc(C(F)(F)F)n2)cc1)OCCC` [Compound 1.305, N-propoxy-N-[[4-[5-(trifiuoromethyl)-1,2,4-oxadiazol-3-yl]phenyl]methyl]-prop-2-ynamide], in test [1], the pest or weed control at 200 ppm was at least 80%. Also, in test [2], the inhibition of growth at 20 ppm was at least 80%.

Turning to `CCCCON(Cc1ccc(-c2noc(C(F)(F)F)n2)cc1)C(=O)COC` [Compound 1.602, N-butoxy-2-methoxy-N-[[4-[5-(trifluoromethyl)-1,2,4-oxadiazol-3-yl]phenyl]methyl]-acetamide], in test [1], the pest or weed control at 200 ppm was at least 80%. For the same molecule, the inhibition of growth at 20 ppm in test [2] was at least 80%.

Regarding `CC(C)CC(=O)N(Cc1ccc(-c2noc(C(F)(F)F)n2)cc1)CC1CCCO1` (centres unmarked) [Compound 1.423, 3-methyl-N-(tetrahydrofuran-2-ylmethyl)-N-[[4-[5-(trifluoromethyl)-1,2,4-oxadiazol-3-yl]phenyl]methyl]-butanamide], the pest or weed control at 200 ppm in test [1] was at least 80%. Further, in test [2], the inhibition of growth at 20 ppm was at least 80%.

In the case of `CCC(=O)N(Cc1ccc(-c2noc(C(F)(F)F)n2)cc1)OCc1ccc(Cl)cc1` [Compound 1.550, N-[(4-chlorophenyl)-methoxy]-N-[[4-[5-(trifluoromethyl)-1,2,4-oxadiazol-3-yl]phenyl]methyl]-propanamide], in test [1], the pest or weed control at 200 ppm was at least 80%. Moreover, the inhibition of growth at 20 ppm in test [2] was at least 80%.

As to `COCCN(Cc1ccc(-c2noc(C(F)(F)F)n2)cc1)C(=O)C1(NC=O)CC1` [Compound 1.354, 1-formamido-N-(2-methoxyethyl)-N-[[4-[5-(trifluoromethyl)-1,2,4-oxadiazol-3-yl]phenyl]methyl]-cyclopropane-carboxamide], in test [1], the pest or weed control at 200 ppm was at least 80%.

Consider `COc1ccc(C2(C(=O)N(Cc3ccc(-c4noc(C(F)(F)F)n4)cc3)C3CC3)CC2)cc1` [Compound 1.143, N-cyclopropyl-1-(4-methoxyphenyl)-N-[[4-[5-(trifluoromethyl)-1,2,4-oxadiazol-3-yl]phenyl]methyl]-cyclopropane-carboxamide], for which the pest or weed control at 200 ppm in test [1] is at least 80%.

With `O=C(Cc1ccc(C(F)(F)F)cc1)N(Cc1ccc(-c2noc(C(F)(F)F)n2)cc1)C1CC1` [Compound 1.140, N-cyclopropyl-N-[[4-[5-(trifluoromethyl)-1,2,4-oxadiazol-3-yl]phenyl]methyl]-2-[4-(trifluoromethyl)-phenyl]acetamide], the pest or weed control at 200 ppm in test [1] is at least 80%.

Turning to `C#CCOC(=O)NC(C(=O)N(CC#C)Cc1ccc(-c2noc(C(F)(F)F)n2)cc1)C(C)C` (centres unmarked) [Compound 1.198, prop-2-ynyl N-[2-methyl-1-[prop-2-ynyl-[[4-[5-(trifluoromethyl)-1,2,4-oxadiazol-3-yl]phenyl]methyl]-carbamoyl]propyl]-carbamate], the pest or weed control at 200 ppm in test [1] is at least 80%.

Consider `C#CCOC(C(=O)N(Cc1ccc(-c2noc(C(F)(F)F)n2)cc1)C1CC1)c1ccc(Cl)cc1` (centres unmarked) [Compound 1.141, 2-(4-chlorophenyl)-N-cyclopropyl-2-prop-2-ynoxy-N-[[4-[5-(trifluoromethyl)-1,2,4-oxadiazol-3-yl]phenyl]methyl]-acetamide], for which the pest or weed control at 200 ppm in test [1] was at least 80%.

`O=C(Cc1ccc(Cl)cc1)N(Cc1ccc(-c2noc(C(F)(F)F)n2)cc1)CC1CC1` [Compound 1.234, 2-(4-chlorophenyl)-N-(cyclopropylmethyl)-N-[[4-[5-(trifluoromethyl)-1,2,4-oxadiazol-3-yl]phenyl]methyl]-acetamide]: the pest or weed control at 200 ppm in test [1] is at least 80%.
